{"source": "patent US10022358B2", "about": "“Methods for improving muscle and heart function” (BioVentures, LLC, priority 2013, dated 2018)", "key": {"[1]": {"system": "carnitinepalmitoyltransferase (CPT)-1", "test": "CPT-1 activity in heart mitochondria of old animals treated with oral propionyl-L-carnitine (FIG. 8)", "type": "in vivo, rodent", "settings": "old hearts, oral treatment, p<0.02, n=6", "text": "FIG. 8 depicts graphs showing carnitinepalmitoyltransferase (CPT)-1activity decreases with age in mitochondria (2 vs 18 mos, p<0.004).\nAppropriate regulation of energy substrate metabolism not only involves relatively normal insulin sensitivity, but also adequate number and functional capacity of mitochondria. One aspect of mitochondrial function is the rate of production of mitochondrial proteins. […] In addition to adequate protein content in mitochondria, it is necessary that substrates, particularly long-chain fatty acids, are not limited in their ability to enter the mitochondria, or in their complete oxidation once inside the mitochondria. The capacity to oxidize fatty acids is reduced in patients with major inflammatory responses due to reduced carnitine palmitoyltransferase 1 (CPT1) activity. Unimpaired capacity to oxidize fatty acids is important because the energy to perform low-intensity exercise, including activities of daily living that individuals with heart failure often struggle with, is provided by the oxidation of fatty acids."}, "[2]": {"system": "nitric oxide (NO) synthesis", "test": "Isotopic tracer study of plasma arginine and NO synthesis during citrulline ingestion (FIG. 5)", "type": "in vivo, human", "method": "FIG. 5 depicts plasma arginine responses (A) and nitric oxide (NO) synthesis rates (B) in basal period and during ingestion of 3 g of citrulline (CIT) sip ingestion over 3 hours in elderly (n=8, 77±9y, 93±4 kg) and young individuals (n=8, 27±9y, 70±5 kg).\nBriefly, elderly (n=8, 77±9y, 93±4 kg) and young individuals (n=8, 27±9y, 70±5 kg) ingested 3 grams of citrulline over 3 hours and plasma arginine response and nitric oxide (NO) synthesis rates were quantified. […] Thus, oral ingestion of citrulline is very effective in increasing peripheral arginine concentration and NO synthesis in elderly subjects with heart failure."}, "mitochondrial biogenesis": {"system": "mitochondrial biogenesis", "settings": "cited from earlier work"}, "[3]": {"system": "patients with heart failure", "settings": "dietary supplementation; cited from earlier work"}, "muscle protein synthesis": {"system": "muscle protein synthesis", "settings": "cited from earlier work"}, "[4]": {"settings": "3 g citrulline sip ingestion over 3 hours, elderly and young"}}, "note": "“Also recorded” adds a separate entry of the source.", "data": [{"smiles": "CCC(=O)O[C@H](CC(=O)[O-])C[N+](C)(C)C", "note": "[propionyl-L-carnitine]", "values": [{"measurement": "CPT-1 activity in mitochondria", "setting": "[1]", "result": "can restore CPT-1 activity to that of young hearts; also recorded: restored CPT to that of young hearts"}]}, {"smiles": "NC(=O)NCCC[C@H](N)C(=O)O", "note": "[citrulline]", "values": [{"measurement": "nitric oxide (NO) synthesis rate", "setting": "[2]; [4]", "result": "stimulated production of NO"}, {"measurement": "plasma arginine response", "setting": "[2]; [4]", "result": "effectively increased the concentration of arginine in the blood"}, {"measurement": "increase in NO synthesis in elderly", "setting": "[2]; elderly with heart failure, 3 g citrulline over 3 hours", "result": "physiologically significant"}]}, {"smiles": "CC(C)C[C@H](N)C(=O)O", "note": "[leucine]", "values": [{"measurement": "mitochondrial biogenesis", "setting": "mitochondrial biogenesis", "result": "stimulate mitochondrial biogenesis"}]}, {"smiles": "N=C(N)NCCC[C@H](N)C(=O)O", "note": "[arginine]", "values": [{"measurement": "blood pressure", "setting": "[3]", "result": "reduces blood pressure"}, {"measurement": "duration until exhaustion on a treadmill walk", "setting": "[3]", "result": "increased duration until exhaustion"}, {"measurement": "right ventricular function", "setting": "[3]", "result": "improves right ventricular function"}, {"measurement": "effect on muscle protein synthesis when NO synthesis pharmacologically blocked", "setting": "muscle protein synthesis", "result": "effective even when given when NO synthesis was pharmacologically blocked"}]}]}
